This is an account of results in patent USRE45272E1, “β-glucuronide-linker drug conjugates” (priority 2005, dated 2014).

Structures can show the parent of a compound that is named as a salt. Where two headings read alike, the source gives them in different places. Square brackets hold non-standard residues; d marks the D form. Peptide text beside a SMILES is read from it. * marks the point of attachment. Dolaproine = CO[C@@H]([C@@H]1CCCN1)[C@@H](C)C(=O)O; Dil = CC[C@H](C)[C@H](NC)[C@@H](CC(=O)O)OC; X1 = C[C@@H](N*)[C@@H](O)c1ccccc1; NMeV = CN[C@H](C(=O)O)C(C)C

Format in all cases: cell-based
Data set [1] has as its system Caki-1 (CD70+, CD30−) renal cell carcinoma cells. The data set can be described thus: In vitro growth inhibition (resazurin), Caki-1. As for the experimental part: (§1) In vitro growth inhibition. Cells were collected and plated in 96 well black-sided plates at a density of 10,000 cells/well in 150 μL of medium. Serial dilutions of the ADC (50 μL) were added, and incubation was carried out for 92 h at 37° C. After addition of ADC, cultures were incubated to 96 h at 37° C. Resazurin (0.25 mM, 50 μL, Sigma, St. Louis, Mo.) in medium was added and incubation was continued for 4 h. The plates were read on a Fusion HT microplate reader (Packard, Meriden, Conn.) using an excitation wavelength of 525 nm and an emission wavelength of 590 nm. Data from all assays were reduced using GraphPad Prism Version 4 for Windows (GraphPad Software, San Diego, Calif.). The IC50 concentrations compared to untreated control cells were determined using a 4 parameter curve fits.
(Alamar Blue is a resazurin reagent that responds to reducing activity.)

In data set [2] the test system is 786-O (CD70+, CD30−) renal cell carcinoma cells. In words: In vitro growth inhibition (resazurin), 786-O. How it is done: as §1
Data set [3] deals with Karpas 299 (CD30+, CD70−) ALCL cells. The data set can be described thus: In vitro growth inhibition (resazurin), Karpas 299. As for the experimental part: as §1
The subject of data set [4] is Caki-1, 786-O and Karpas 299 cell lines. The data set can be described thus: In vitro cytotoxicity, statements across Caki-1, 786-O and Karpas 299. The note with it: for IC50: read-out: IC50 on Caki-1, 786-O and Karpas 299 (all lines). How it is done:
as §1
Results. […] The negative charge associated with the carboxylate group of 1b leads to reduced cytotoxic activity, presumably due to impaired intracellular access.
The ADCs of 9b effectively delivered 1b to the targeted cells. […] Conjugates of doxorubicin drug-linker 17 gave the same general profile with effective cell kill on antigen positive cell lines and specificity values >16-fold.

Where [5] appears, read: 96 h exposure, resazurin metabolism, vs untreated cells, drug content, read-out: Caki-1 (CD70+, CD30−) IC50 drug.
Setting [6] is: 96 h exposure, resazurin metabolism, vs untreated cells, drug content, read-out: 786-O (CD70+, CD30−) IC50 drug.
[7] abbreviates: 96 h exposure, resazurin metabolism, vs untreated cells, drug content, read-out: Karpas 299 (CD30+, CD70−) IC50 drug.

For orientation: IC50 means the point on the concentration scale where inhibition reaches its midpoint. Take `CC[C@H](C)[C@@H]([C@@H](CC(=O)N1CCC[C@H]1[C@H](OC)[C@@H](C)C(=O)N[C@H](C)[C@@H](O)c1ccccc1)OC)N(C)C(=O)[C@@H](NC(=O)[C@@H](NC)C(C)C)C(C)C` [Compound 1a, monomethyl auristatin E] (H-[NMeV]V[Dil][Dolaproine]-X1): the results for the IC50 in data set [1] (setting [5]), in data set [2] (setting [6]) and in data set [3] (setting [7]) were 0.11 nM, 0.19 nM and 0.09 nM, respectively.

Consider `CC[C@H](C)[C@@H]([C@@H](CC(=O)N1CCC[C@H]1[C@H](OC)[C@@H](C)C(=O)N[C@@H](Cc1ccccc1)C(=O)O)OC)N(C)C(=O)[C@@H](NC(=O)[C@@H](NC)C(C)C)C(C)C` [Compound 1b, N-methylvaline-valine-dolaisoleuine-dolaproine-phenylalanine] (HELM PEPTIDE1{[meV].V.[CC[C@H](C)[C@@H]([C@@H](CC(=O)[*:2])OC)N(C)[*:1]].[CO[C@H]([C@@H](C)C(=O)[*:2])[C@@H]1CCCN1[*:1]].F}$$$$V2.0), for which the half-maximal inhibitory concentration (IC50) in data set [1] (setting [5]) was 270 nM; in data set [2] (setting [6]) it was 300 nM; in data set [3] (setting [7]) it was 100 nM; in data set [4] (statement for all three cell lines) it was 100 to 200 nM.

Regarding `COc1cccc2c1C(=O)c1c(O)c3c(c(O)c1C2=O)C[C@@](O)(C(=O)CO)C[C@@H]3O[C@H]1C[C@H](N)[C@H](O)[C@H](C)O1` [Compound 15, doxorubicin-HCl], the IC50 in data set [1] (Homo sapiens, CAKI-1, 96 h exposure, resazurin metabolism, vs untreated cells, drug content, read-out: Caki-1 (CD70+, CD30−) IC50 drug) is 110 nM; in data set [2] (Homo sapiens, 786-0, 96 h exposure, resazurin metabolism, vs untreated cells, drug content, read-out: 786-O (CD70+, CD30−) IC50 drug), 65 nM; in data set [3] (Homo sapiens, KARPAS-299, 96 h exposure, resazurin metabolism, vs untreated cells, drug content, read-out: Karpas 299 (CD30+, CD70−) IC50 drug) it was 29 nM.

Regarding `COc1cccc2c1C(=O)c1c(O)c3c(c(O)c1C2=O)C[C@@](O)(C(=O)CO)CC3OC1CC(NCCCC(OC(C)=O)OC(C)=O)C(O)C(C)O1` (stereo partly drawn) [Compound 18], the half-maximal inhibitory concentration (IC50) is 0.04 nM in data set [1] (Homo sapiens, CAKI-1, 96 h, read-out: Caki-1 (CD70+, CD30−) IC50 drug nM); 0.01 nM in data set [2] (Homo sapiens, 786-0, 96 h, read-out: 786-O (CD70+, CD30−) IC50 drug nM); 0.1 nM in data set [3] (Homo sapiens, KARPAS-299, 96 h, read-out: Karpas 299 (CD30+, CD70−) IC50 drug nM); less than 0.2 nM in data set [4]. Moreover, the “fold more cytotoxic than doxorubicin (15)” value in data set [4] (across Caki-1, 786-O, Karpas 299) is recorded as 300-6500 fold.
